The target in the experiment is human CYP2D6 (Homo sapiens, UniProt P10635). Briefly: Cytochrome P450 2D6 inhibition (dextromethorphan O-demethylation, pooled human hepatic microsome).
Sequence of human CYP2D6 (P10635 whole entry): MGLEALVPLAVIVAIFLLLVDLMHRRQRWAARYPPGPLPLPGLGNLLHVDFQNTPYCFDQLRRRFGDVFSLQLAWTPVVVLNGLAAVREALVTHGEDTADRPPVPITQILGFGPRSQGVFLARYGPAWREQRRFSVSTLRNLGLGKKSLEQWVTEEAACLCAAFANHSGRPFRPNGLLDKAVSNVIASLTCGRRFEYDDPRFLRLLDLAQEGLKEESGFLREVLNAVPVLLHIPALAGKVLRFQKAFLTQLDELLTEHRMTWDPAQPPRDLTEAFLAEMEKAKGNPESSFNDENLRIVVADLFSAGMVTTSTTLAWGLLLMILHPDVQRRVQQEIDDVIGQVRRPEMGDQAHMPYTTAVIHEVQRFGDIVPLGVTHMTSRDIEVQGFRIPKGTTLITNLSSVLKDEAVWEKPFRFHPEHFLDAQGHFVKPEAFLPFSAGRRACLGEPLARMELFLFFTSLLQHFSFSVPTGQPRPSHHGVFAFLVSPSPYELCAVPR
For orientation: IC50 means the concentration that gives 50% inhibition. Lower therefore signals higher potency. Compound `Nc1nc(=O)n(-c2nc3ccccc3n([C@H]3C[C@H]4CCC[C@@H](C3)N4[C@H]3C[C@@H]4CCC[C@@H](C4)C3)c2=O)cc1F` [B7a(i), 1-((1R,1′R,3r,3′R,5S,5′S)-[3,9′-bi(9′-azabicyclo[3.3.1]nonan)]-3′-yl)-3-(4-amino-5-fluoro-2-oxopyrimidin-1(2H)-yl)quinoxalin-2(1H)-one] gave a half-inhibitory concentration (IC50) of over 20 µM.
To `O=C(O)Cn1c(-c2nc3ccccc3n([C@H]3C[C@H]4CCC[C@@H](C3)N4C3CCCCCCCCC3)c2=O)cccc1=O` [BB1c(iii), 2-(6-(4-((1R,3r,5S)-9-cyclodecyl-9-azabicyclo[3.3.1]nonan-3-yl)-3-oxo-3,4-dihydroquinoxalin-2-yl)-2-oxopyridin-1(2H)-yl)acetic acid] belongs over 20 µM; to `O=c1c(N2CCNCC2)nc2ccccc2n1C1CCN(C2CCCCCCC2)CC1` [CC10, reference compound], under 1 µM; to `O=C1CN(c2nc3ccccc3n(C3CCN(C4CCCCCCC4)CC3)c2=O)CCN1` [CC18, reference compound], under 1 µM.
Under `NC1CCN(c2nc3ccccc3n(C3CCN(C4CCCCCCC4)CC3)c2=O)CC1` [CC22, reference compound] stands 1 µM.
To `N[C@H]1CCN(c2nc3ccccc3n(C3CCN(C4CCCCCCC4)CC3)c2=O)C1` [CC39, reference compound] belongs under 1 µM; to `N[C@@H]1CCN(c2nc3ccccc3n(C3CCN(C4CCCCCCC4)CC3)c2=O)C1` [CC51, reference compound], under 1 µM; to `N[C@@H]1CCN(c2nc3ccccc3n([C@H]3C[C@H]4CC[C@@H](C3)N4C3CCCCCCC3)c2=O)C1` [CC101, reference compound], under 1 µM.
Regarding `O=C1CCN(c2nc3ccccc3n(C3CCN(C4CCCCCCC4)CC3)c2=O)N1` [CC119, reference compound], the IC50 was over 20 µM.
In the case of `O=C(O)CN1CCN(c2nc3ccccc3n([C@H]3C[C@H]4CC[C@@H](C3)N4C3CCCCCCC3)c2=O)CC1` [CC337, reference compound], the concentration for half-maximal inhibition (IC50) is 13 µM.
Under `O=c1[nH]c(=O)n(-c2nc3ccccc3n([C@H]3C[C@H]4CCC[C@@H](C3)N4[C@H]3C[C@@H]4CCC[C@@H](C4)C3)c2=O)cc1Br` [Compound B16a, 1-(4-((1R,1′R,3r,3R,5S,5′S)-[3,9′-bi(9′-azabicyclo[3.3.1]nonan)]-3′-yl)-3-oxo-3,4-dihydroquinoxalin-2-yl)-5-bromopyrimidine-2,4(1H,3H)-dione] stands over 20 µM; under `C[C@@H]1C[C@@H]2C[C@H](C1)C[C@@H](N1[C@@H]3CCC[C@H]1C[C@@H](n1c(=O)c(-n4ncc(=O)[nH]c4=O)nc4ccccc41)C3)C2` [Compound B34a, 2-(4-((1R,1′R,3r,3′R,5S,5′S,7S)-7-methyl-[3,9′-bi(9′-azabicyclo[3.3.1]nonan)]-3′-yl)-3-oxo-3,4-dihydroquinoxalin-2-yl)-1,2,4-triazine-3,5(2H,4H)-dione], over 20 µM.
To `C[C@@H]1C[C@@H]2C[C@H](C1)C[C@@H](N1[C@@H]3CCC[C@H]1C[C@@H](n1c(=O)c(N4C(=O)NC(C)(C)C4=O)nc4ccccc41)C3)C2` [Compound B47a] belongs over 20 µM; to `O=c1cnn(-c2nc3ccccc3n([C@H]3C[C@H]4CC[C@@H](C3)N4[C@@H]3C[C@@H]4CCCC[C@@H](C4)C3)c2=O)c(=O)[nH]1` [Compound N9b, 2-(4-((1R,3R,5S)-8-((1R,6S,8s)-bicyclo[4.3.1]decan-8-yl)-8-azabicyclo[3.2.1]octan-3-yl)-3-oxo-3,4-dihydroquinoxalin-2-yl)-1,2,4-triazine-3,5(2H,4H)-dione], over 20 µM.
Under `Cc1nn(-c2nc3ccccc3n([C@H]3C[C@H]4CCC[C@@H](C3)N4[C@@H]3C[C@@H]4CCCC[C@@H](C4)C3)c2=O)c(=O)[nH]c1=O` [Compound O10b, 2-(4-((1R,3R,5 S)-9-((1R,6S,8s)-bicyclo[4.3.1]decan-8-yl)-9-azabicyclo[3.3.1]nonan-3-yl)-3-oxo-3,4-dihydroquinoxalin-2-yl)-6-methyl-1,2,4-triazine-3,5(2H,4H)-dione] stands over 20 µM.

Values taken from patent US9085561B2, “Cyclic urea- or lactam-substituted quinoxaline-type piperidines as ORL-1 modulators” (priority 2012, dated 2015).
